According to ChEMBL document CHEMBL6121055, “Strategic Mutations in Designer Native Peptides Combat NLRP3 Inflammasome Activation in Neurodegenerative Disorders” (J Med Chem, 2025):
Activity calls are given as the source filed them. The rule behind the calls is not given here. Residues, ends and D or L forms follow the SMILES beside them.

What was measured:
N9 [1] = experiment: Inhibition of NLRP3 inflammasome activation in LPS/amyloid-beta-stimulated mouse N9 cells assessed as inhibition of ASC speck formation preincubated with LPS for 4 hrs followed by compound addition by 30 mins and measured after 16 hrs of amyloid-beta stimulation by DAPI staining based immunofluorescence analysis; type: cell-based; details: dose 10-20 µM, time 16.5 hrs
[2] = biological target: T1, Apoptosis-associated speck-like protein containing a CARD (Homo sapiens, UniProt Q9ULZ3); experiment: Binding affinity to ASC (unknown origin) assessed as shift in ASC protein band at 0.5 to 2 uM by native PAGE analysis; details: dose 0.5-2 µM
N9 [3] = experiment: Inhibition of NLRP3 inflammasome activation mediated pyroptosis in LPS/ATP-stimulated mouse N9 cells assessed as reduction in cell death measured after 24 hrs by MTT assay; type: cell-based; details: dose 5-30 µM
[4] = biological target: T1, Apoptosis-associated speck-like protein containing a CARD; experiment: Binding affinity to Alexa647-labeled ASC (unknown origin) assessed as dissociation constant incubated for 5 mins by fluorescence spectra based analysis
N9 [5] = experiment: Inhibition of NLRP3 inflammasome activation mediated in LPS/alpha-synuclein-stimulated mouse N9 cells assessed as decrease in mitochondrial ROS generation by flow cytometric analysis; type: cell-based; details: dose 5-30 µM
HEK-293T = experiment: Cytotoxicity against HEK293T cells assessed as reduction in cell viability upto 100 uM measured after 24 hrs by MTT assay; type: toxicity, cell-based; details: human
N9 [6] = experiment: Inhibition of NLRP3 inflammasome activation mediated pyroptosis in LPS/ATP-stimulated mouse N9 cells assessed as reduction in cell death preincubated with compound followed by LPS stimulation by MTT assay; type: cell-based; details: dose 5-20 µM
N9 [7] = experiment: Inhibition of NLRP3 inflammasome activation mediated in LPS/tau-stimulated mouse N9 cells assessed as decrease in mitochondrial ROS generation by flow cytometric analysis; type: cell-based; details: dose 5-30 µM
N9 [8] = experiment: Inhibition of NLRP3 inflammasome activation mediated pyroptosis in LPS/ATP-stimulated mouse N9 cells assessed as reduction in cell death at 100 uM measured after 24 hrs by MTT assay; type: cell-based
[9] = biological target: T1, Apoptosis-associated speck-like protein containing a CARD; experiment: Binding affinity to Alexa647-labeled ASC (unknown origin) assessed as equilibrium dissociation constant incubated for 30 mins by MST analysis
N9 [10] = experiment: Inhibition of NLRP3 inflammasome activation in LPS/amyloid-beta-stimulated mouse N9 cells assessed as reduction in IL-1beta secretion at 10 to 20 uM preincubated with LPS for 4 hrs followed by compound addition for 30 mins and measured after amyloid-beta stimulation for 16 hrs by ELISA; type: cell-based; details: dose 10-20 µM, time 16.5 hrs
N9 [11] = experiment: Inhibition of NLRP3 inflammasome activation mediated ROS production in LPS/ATP-stimulated mouse N9 cells preincubated with LPS for 4 hrs followed by compound addition for 30 mins and measured after ATP stimulation for 1 hrs by DCFDA staining based flow cytometric analysis; type: cell-based; details: dose 10-30 µM, time 1.5 hrs
N9 [12] = experiment: Inhibition of NLRP3 inflammasome activation mediated in LPS/alpha-synuclein-stimulated mouse N9 cells assessed as increase in mitochondrial membrane potential by flow cytometric analysis; type: cell-based; details: dose 5-30 µM
N9 [13] = experiment: Inhibition of NLRP3 inflammasome activation mediated in LPS/tau-stimulated mouse N9 cells assessed as increase in mitochondrial membrane potential by flow cytometric analysis; type: cell-based; details: dose 5-30 µM
[14] = Inhibition of NLRP3 inflammasome activation in LPS/ATP-stimulated mouse N9 cells assessed as inhibition of IL-1beta mRNA expression by qRT-PCR analysis; type: cell-based
N9 [15] = experiment: Inhibition of AIM2 inflammasome activation mediated pyroptosis in LPS/poly(dA:dT)-stimulated mouse N9 cells assessed as reduction in cell death at 50 uM by MTT assay; type: cell-based
[16] = Stability of compound in fetal bovine serum at 100 uM measured after 48 hrs by RP-HPLC analysis; type: ADME, cell-free, Bos taurus; details: cattle
N9 [17] = experiment: Inhibition of NLRP3 inflammasome activation mediated mitochondrial damage in LPS/ATP-stimulated mouse N9 cells assessed as reduction in mitochondrial ROS level by MitoSOX red staining based confocal microscopic analysis; type: cell-based; details: dose 10-20 µM
[18] = Inhibition of NLRP3 inflammasome activation in LPS/ATP-stimulated mouse N9 cells assessed as inhibition of caspase-1 mRNA expression by qRT-PCR analysis; type: cell-based
[19] = Cytotoxicity against mouse N9 cells assessed as reduction in cell viability at 100 uM incubated for 24 hrs by MTT assay; type: toxicity, cell-based; details: n9, 24 h
N9 [20] = experiment: Inhibition of NLRP3 inflammasome activation in LPS/ATP-stimulated mouse N9 cells assessed as increase in intracellular potassium level at 10 to 25 uM preincubated with LPS for 4 hrs followed by compound addition for 30 mins and measured after ATP stimulation for 1 hrs by ICP-OES analysis; type: cell-based; details: dose 10-25 µM, time 1.5 hrs
N9 [21] = experiment: Inhibition of NLRP3 inflammasome activation in LPS/ATP-stimulated mouse N9 cells assessed as reduction in IL-1beta mRNA expression by measuring remaining activity at 20 uM by qRT-PCR analysis relative to control; type: cell-based
N9 [22] = experiment: Inhibition of NLRP3 inflammasome activation mediated pyroptosis in LPS/amyloid-beta-stimulated mouse N9 cells assessed as reduction in cell death at 5 to 30 uM by MTT assay; type: cell-based; details: dose 5-30 µM
N9 [23] = experiment: Inhibition of NLRP3 inflammasome activation mediated mitochondrial damage in LPS/ATP-stimulated mouse N9 cells assessed as normal tubular structure of mitochondria at 10 to 20 uM by […] staining based confocal microscopic analysis; details: dose 10-20 µM
N9 [24] = experiment: Inhibition of NLRP3 inflammasome activation mediated pyroptosis in LPS/ATP-stimulated mouse N9 cells assessed as reduction in number of PI-positive cells preincubated with compound and LPS for 4 hrs followed by ATP addition and measured after 24 hrs by calcein AM/PI staining based confocal imaging analysis; type: cell-based; details: dose 5-20 µM, time 28.0 hrs
N9 [25] = experiment: Inhibition of NLRP3 inflammasome activation in LPS/ATP-stimulated mouse N9 cells assessed as increase in intracellular chloride level preincubated with LPS for 4 hrs followed by compound addition for 30 mins and measured after ATP stimulation for 50 mins by MQAE dye based analysis; type: cell-based; details: time 80.0 min
N9 [26] = experiment: Inhibition of NLRP3 inflammasome activation mediated in LPS/amyloid-beta-stimulated mouse N9 cells assessed as decrease in mitochondrial ROS generation by flow cytometric analysis; type: cell-based; details: dose 5-30 µM
N9 [27] = experiment: Inhibition of NLRP3 inflammasome activation in LPS/ATP-stimulated mouse N9 cells assessed as increase in intracellular chloride level at 5 to 30 uM preincubated with LPS for 4 hrs followed by compound addition for 30 mins and measured after ATP stimulation for 45 mins by MQAE dye based analysis; type: cell-based; details: dose 5-30 µM, time 75.0 min
N9 [28] = experiment: Inhibition of NLRP3 inflammasome activation in LPS/tau-stimulated mouse N9 cells assessed as inhibition of ASC speck formation preincubated with LPS for 4 hrs followed by compound addition by 30 mins and measured after 24 hrs of tau stimulation by DAPI staining based immunofluorescence analysis; type: cell-based; details: dose 10-20 µM, time 24.5 hrs
N9 [29] = experiment: Inhibition of NLRP3 inflammasome activation in LPS/ATP-stimulated mouse N9 cells assessed as increase in mitochondrial membrane potential preincubated with LPS for 4 hrs followed by compound addition for 30 mins and measured after ATP stimulation for 1 hrs by Rhodamine 123 staining based flow cytometric analysis; type: cell-based; details: dose 10-30 µM, time 1.5 hrs

T1 sequence (Q9ULZ3 whole entry): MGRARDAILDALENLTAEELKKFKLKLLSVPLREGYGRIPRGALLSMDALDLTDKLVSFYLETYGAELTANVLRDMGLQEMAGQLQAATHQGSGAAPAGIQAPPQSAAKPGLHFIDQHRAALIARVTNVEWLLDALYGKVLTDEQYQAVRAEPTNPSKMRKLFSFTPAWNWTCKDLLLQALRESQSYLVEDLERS

SMILES: CC[C@H](C)[C@H](NC(=O)[C@H](C)NC(=O)[C@H](C)NC(=O)[C@H](CC(C)C)NC(=O)[C@@H](NC(=O)[C@H](Cc1c[nH]c2ccccc12)NC(=O)[C@@H](N)C(C)C)[C@@H](C)CC)C(=O)N[C@@H](CC(N)=O)C(=O)N[C@@H](CCCNC(=N)N)C(=O)N[C@@H](CCCNC(=N)N)C(=O)O (H-VWILAAINRR-OH)
- inhibition (N9 [1]): Dose-dependent-effect
- Activity [2]: Active
- inhibition (N9 [3]): Dose-dependent-effect
- Kd [4]: 58 nM
- inhibition (N9 [5]): Dose-dependent-effect
- Activity (HEK-293T): Non-toxic
- inhibition (N9 [6]): Dose-dependent-effect
- inhibition (N9 [7]): Dose-dependent-effect
- inhibition (N9 [8]): Active
- Kd [9]: ~149 nM
- inhibition (N9 [10]): Dose-dependent-effect
- inhibition (N9 [11]): Dose-dependent-effect
- inhibition (N9 [12]): Dose-dependent-effect
- inhibition (N9 [13]): Dose-dependent-effect
- IC50 [14]: 2570 nM
- inhibition (N9 [15]): Active
- Stability [16]: Stable
- inhibition (N9 [17]): Dose-dependent-effect
- IC50 [18]: 16200 nM
- Activity [19]: Non-toxic
- inhibition (N9 [20]): Active
- Activity (N9 [21]): 50%
- inhibition (N9 [22]): Active
- inhibition (N9 [23]): Active
- inhibition (N9 [24]): Dose-dependent-effect
- inhibition (N9 [25]): Active
- inhibition (N9 [26]): Dose-dependent-effect
- inhibition (N9 [27]): Active
- inhibition (N9 [28]): Dose-dependent-effect
- inhibition (N9 [29]): Dose-dependent-effect
